Where a name gives a salt, the structure may show the parent alone.
Tests used:
Format in all cases: biochemical
Settings in all cases: enzyme-coupled assay
IP6K3 = IP6K3 (Homo sapiens (Human), UniProt Q96PC2); test: Enzyme-coupled assay of IP6K3 activity (Dipp1-coupled, malachite green Pi release)
IPMK = IPMK (Homo sapiens (Human), UniProt Q8NFU5); test: Enzyme-coupled assay, IPMK IC50
IP6K2 = IP6K2 (Homo sapiens (Human), UniProt Q9UHH9); test: Enzyme-coupled assay of IP6K2 activity (Dipp1-coupled, malachite green Pi release)
Method: (§1) […] The cells were disrupted using a constant cell disruption system (Constant Systems) under 20 kPsi.
(§2) Pi release was determined with a malachite green colorimetric assay.^45 Where indicated, TNP (Cayman Chemical) was added to the assays (FIG. 2A-E).

IP6K1 = IP6K1 (Homo sapiens (Human), UniProt Q92551); test: Enzyme-coupled assay of IP6K1 activity (Dipp1-coupled, malachite green Pi release)
Method: as §1, §2

Chain of IP6K1 (Q92551 whole entry): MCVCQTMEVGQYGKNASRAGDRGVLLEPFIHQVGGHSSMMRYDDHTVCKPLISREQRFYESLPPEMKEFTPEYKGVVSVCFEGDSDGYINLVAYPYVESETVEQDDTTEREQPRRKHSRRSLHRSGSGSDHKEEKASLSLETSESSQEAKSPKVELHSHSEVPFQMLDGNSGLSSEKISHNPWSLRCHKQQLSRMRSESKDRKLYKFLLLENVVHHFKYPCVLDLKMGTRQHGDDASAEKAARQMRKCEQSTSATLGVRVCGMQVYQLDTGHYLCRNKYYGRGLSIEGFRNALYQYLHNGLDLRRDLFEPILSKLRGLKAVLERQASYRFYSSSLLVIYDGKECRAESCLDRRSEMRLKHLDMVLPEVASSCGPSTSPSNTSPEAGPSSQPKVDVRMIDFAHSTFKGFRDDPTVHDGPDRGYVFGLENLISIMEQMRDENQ
Chain of IP6K2 (Q9UHH9 whole entry): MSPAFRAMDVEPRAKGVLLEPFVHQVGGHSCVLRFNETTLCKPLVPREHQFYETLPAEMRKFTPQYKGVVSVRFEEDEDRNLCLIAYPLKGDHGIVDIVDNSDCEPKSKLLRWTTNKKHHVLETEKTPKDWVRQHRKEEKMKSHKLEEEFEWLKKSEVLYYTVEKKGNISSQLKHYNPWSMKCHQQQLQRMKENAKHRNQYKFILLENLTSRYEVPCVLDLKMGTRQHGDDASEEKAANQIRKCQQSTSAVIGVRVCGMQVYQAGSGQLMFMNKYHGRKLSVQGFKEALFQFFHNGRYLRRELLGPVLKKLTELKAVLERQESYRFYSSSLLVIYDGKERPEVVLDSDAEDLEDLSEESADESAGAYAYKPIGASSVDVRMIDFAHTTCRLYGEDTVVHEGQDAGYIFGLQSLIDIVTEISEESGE
Chain of IP6K3 (Q96PC2 whole entry): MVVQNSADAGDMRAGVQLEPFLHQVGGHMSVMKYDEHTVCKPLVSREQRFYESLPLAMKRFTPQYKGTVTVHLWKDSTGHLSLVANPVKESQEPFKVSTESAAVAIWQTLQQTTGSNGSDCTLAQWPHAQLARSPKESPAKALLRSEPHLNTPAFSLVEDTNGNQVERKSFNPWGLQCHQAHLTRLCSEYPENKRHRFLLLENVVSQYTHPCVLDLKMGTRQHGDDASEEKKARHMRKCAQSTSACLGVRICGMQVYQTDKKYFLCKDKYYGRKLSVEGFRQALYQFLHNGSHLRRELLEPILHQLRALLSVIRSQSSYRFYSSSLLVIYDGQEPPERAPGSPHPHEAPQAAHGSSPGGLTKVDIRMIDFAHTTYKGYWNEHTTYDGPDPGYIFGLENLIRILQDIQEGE
Chain of IPMK (Q8NFU5 whole entry, species assumed): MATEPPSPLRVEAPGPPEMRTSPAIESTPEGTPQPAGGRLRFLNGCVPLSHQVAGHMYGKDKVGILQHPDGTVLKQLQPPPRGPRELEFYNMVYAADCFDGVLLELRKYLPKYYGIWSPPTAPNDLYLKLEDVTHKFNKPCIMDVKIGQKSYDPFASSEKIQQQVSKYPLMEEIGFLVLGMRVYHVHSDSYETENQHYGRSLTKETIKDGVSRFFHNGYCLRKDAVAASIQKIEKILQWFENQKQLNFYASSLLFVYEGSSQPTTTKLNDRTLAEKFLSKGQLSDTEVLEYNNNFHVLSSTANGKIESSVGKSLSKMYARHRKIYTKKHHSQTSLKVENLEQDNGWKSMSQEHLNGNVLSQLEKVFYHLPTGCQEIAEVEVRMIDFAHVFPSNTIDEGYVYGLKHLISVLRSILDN

CC(C)C(=O)Nc1ccc(-c2onc3ccc(C(=O)O)cc23)cc1 [Compound 36] gave an IC50 (IP6K3; Table 2) of 100 to 1000 nM, an IC50 (IPMK; Table 2) of 1000 to 100000 nM and an IC50 (IP6K2; Table 2) of 100 to 1000 nM.

With O=C(CC1CCOCC1)Nc1ccc(-c2onc3ccc(C(=O)O)cc23)cc1 [Compound 37] the IC50 (IP6K1; Table 2) was 1000 to 100000 nM, the IC50 (IP6K3; Table 2) was 1000 to 100000 nM and the IC50 (IPMK; Table 2) was 1000 to 100000 nM. For the same compound, the IC50 (IP6K2; Table 2) was 1000 to 100000 nM.

CC(C)NC(=O)c1ccc(-c2onc3ccc(C(=O)O)cc23)cc1 [Compound 38] showed an IC50 (IP6K3; Table 2) of 100 to 1000 nM, an IC50 (IPMK; Table 2) of 1000 to 100000 nM and an IC50 (IP6K2; Table 2) of 100 to 1000 nM.

Work on O=C(O)c1ccc2noc(-c3ccc(C(=O)NCCC4CC4)cc3)c2c1 [Compound 39] yielded an IC50 (IP6K1; Table 2) of 100 to 1000 nM, an IC50 (IP6K3; Table 2) of 100 to 1000 nM and an IC50 (IPMK; Table 2) of 100 to 1000 nM. The IC50 (IP6K2; Table 2) was 100 to 1000 nM.

O=C(O)c1ccc2noc(-c3cccc(NC(=O)C4CC4)c3)c2c1 [Compound 42] was tested, and the IC50 (IP6K3; Table 2) was 1000 to 100000 nM and the IC50 (IPMK; Table 2) was 10 to 100 nM.

O=C(O)c1ccc2noc(-c3ccc(NC(=O)C4CCCC4)cc3)c2c1 [Compound 43] showed an IC50 (IP6K3; Table 2) of 100 to 1000 nM and an IC50 (IPMK; Table 2) of 1000 to 100000 nM.

Work on O=C(O)c1ccc2noc(-c3ccc(NC(=O)c4ccc(Cl)cc4)cc3)c2c1 [Compound 45] yielded an IC50 (IP6K1; Table 2) of 100 to 1000 nM, an IC50 (IP6K3; Table 2) of 1000 to 100000 nM and an IC50 (IPMK; Table 2) of 1000 to 100000 nM. For the same compound, the IC50 (IP6K2; Table 2) was 100 to 1000 nM.

Compound O=C(O)c1ccc2noc(-c3ccc(NC(=O)c4ccccc4)cc3)c2c1 [Compound 46] has an IC50 (IP6K3; Table 2) of 100 to 1000 nM and an IC50 (IPMK; Table 2) of 1000 to 100000 nM.

O=C(O)c1ccc2noc(-c3ccc(NC(=O)c4ccncn4)cc3)c2c1 [Compound 47] was tested, and the IC50 (IP6K3; Table 2) was 100 to 1000 nM and the “IPMK IC50” value (IPMK; Table 2) was “−”.

Compound O=C(O)c1ccc2noc(-c3ccc(Cc4ccccc4)cc3)c2c1 [Compound 54, 3-(4-benzylphenyl)benzo[c]isoxazole-5-carboxylic acid] has an IC50 (IP6K3; Table 3) of 1000 to 100000 nM and an IC50 (IPMK; Table 3) of 10 to 100 nM.

In the case of O=C(O)c1ccc2noc(-c3ccc(N4CCCCC4)cc3)c2c1 [Compound 55], the IC50 (IP6K3; Table 3) is reported as 1000 to 100000 nM and the “IPMK IC50” value (IPMK; Table 3) is reported as “−”.

O=C(O)c1ccc2noc(-c3ccc(N4CCCC4=O)cc3)c2c1 [Compound 56] gave an IC50 (IP6K3; Table 3) of 1000 to 100000 nM and an IC50 (IPMK; Table 3) of 1000 to 100000 nM.

With O=C(O)c1ccc2noc(-c3ccc(-c4ccncc4)cc3)c2c1 [Compound 58] the IC50 (IP6K3; Table 3) was 100 to 1000 nM and the IC50 (IPMK; Table 3) was 10 to 100 nM.

For c1ccc(-c2onc3ccc(-c4nnn[nH]4)cc23)cc1 [Compound 59], the IC50 (IP6K1; Table 4) was 10 to 100 nM, the IC50 (IP6K3; Table 4) was 100 to 1000 nM and the IC50 (IPMK; Table 4) was 10 to 100 nM. For the same compound, the IC50 (IP6K2; Table 4) was 10 to 100 nM.

c1ccc(-c2onc3ccc(-c4nc[nH]n4)cc23)cc1 [Compound 60] showed an IC50 (IP6K1; Table 4) of 1000 to 100000 nM, an IC50 (IP6K3; Table 4) of 1000 to 100000 nM and an IC50 (IPMK; Table 4) of 10 to 100 nM. It also gave an IC50 (IP6K2; Table 4) of 100 to 1000 nM.

c1ccc(-c2onc3ccc(-n4cncn4)cc23)cc1 [Compound 61] was tested, and the IC50 (IP6K1; Table 4) was 1000 to 100000 nM, the IC50 (IP6K3; Table 4) was 1000 to 100000 nM and the IC50 (IPMK; Table 4) was 10 to 100 nM. The IC50 (IP6K2; Table 4) was 1000 to 100000 nM.

For Fc1ccc(-c2onc3ccc(-c4nnn[nH]4)cc23)cc1 [Compound 63], the IC50 (IP6K1; Table 4) was 10 to 100 nM, the IC50 (IP6K3; Table 4) was 100 to 1000 nM and the IC50 (IPMK; Table 4) was 10 to 100 nM. The IC50 (IP6K2; Table 4) was 10 to 100 nM.

For FC(F)(F)c1ccc(-c2onc3ccc(-c4nnn[nH]4)cc23)cc1 [Compound 64], the IC50 (IP6K3; Table 4) was 100 to 1000 nM, the IC50 (IPMK; Table 4) was 10 to 100 nM and the IC50 (IP6K2; Table 4) was […].

In the case of c1ccc(-c2ccc(-c3onc4ccc(-c5nnn[nH]5)cc34)cc2)cc1 [Compound 68], the IC50 (IP6K1; Table 4) is reported as 10 to 100 nM, the IC50 (IP6K3; Table 4) is reported as 100 to 1000 nM and the IC50 (IP6K2; Table 4) is reported as 10 to 100 nM.

For CC(C)(C)OC(=O)N1CCC(Oc2cccc(-c3onc4ccc(-c5nnn[nH]5)cc34)c2)CC1 [Compound 81, tert-butyl 4-(3-(5-(1H-tetrazol-5-yl)benzo[c]isoxazol-3-yl)phenoxy)piperidine-1-carboxylate], the IC50 (IP6K3; Table 4) was 10 to 100 nM, the IC50 (IPMK; Table 4) was < 10 nM and the IC50 (IP6K2; Table 4) was […].

For c1cc(OC2CCNCC2)cc(-c2onc3ccc(-c4nnn[nH]4)cc23)c1 [Compound 82, 3-(3-(piperidin-4-yloxy)phenyl)-5-(1H-tetrazol-5-yl)benzo[c]isoxazole hydrochloride], the IC50 (IP6K3; Table 4) was 100 to 1000 nM, the IC50 (IPMK; Table 4) was < 10 nM and the IC50 (IP6K2; Table 4) was […].

For O=C(C1CC1)N1CCC(Oc2cccc(-c3onc4ccc(-c5nnn[nH]5)cc34)c2)CC1 [Compound 89], the IC50 (IP6K1; Table 4) was 10 to 100 nM, the IC50 (IPMK; Table 4) was < 10 nM and the IC50 (IP6K2; Table 4) was 10 to 100 nM.

In the case of CC(C)C(=O)N1CCC(Oc2cccc(-c3onc4ccc(-c5nnn[nH]5)cc34)c2)CC1 [Compound 90], the IC50 (IP6K1; Table 4) is reported as 10 to 100 nM, the IC50 (IPMK; Table 4) is reported as < 10 nM and the IC50 (IP6K2; Table 4) is reported as 10 to 100 nM.
